Data reported in ChEMBL document CHEMBL5442219.

Columns and labels:
Conditions in all cases: Compound concentration 10 µM
[1] = target: Sodium-dependent serotonin transporter (Homo sapiens) (UniProt P31645)
[2] = target: Delta-type opioid receptor (Homo sapiens) (UniProt P41143)
[3] = target: Beta-1 adrenergic receptor (Homo sapiens) (UniProt P08588)
[4] = target: Histamine H2 receptor (Homo sapiens) (UniProt P25021)
[5] = target: 5-hydroxytryptamine receptor 2A (Homo sapiens) (UniProt P28223)
[6] = target: 5-hydroxytryptamine receptor 2B (Homo sapiens) (UniProt P41595)
[7] = target: 5-hydroxytryptamine receptor 1D (Homo sapiens) (UniProt P28221)
Chain of 5-hydroxytryptamine receptor 1D (Homo sapiens) (P28221 whole entry): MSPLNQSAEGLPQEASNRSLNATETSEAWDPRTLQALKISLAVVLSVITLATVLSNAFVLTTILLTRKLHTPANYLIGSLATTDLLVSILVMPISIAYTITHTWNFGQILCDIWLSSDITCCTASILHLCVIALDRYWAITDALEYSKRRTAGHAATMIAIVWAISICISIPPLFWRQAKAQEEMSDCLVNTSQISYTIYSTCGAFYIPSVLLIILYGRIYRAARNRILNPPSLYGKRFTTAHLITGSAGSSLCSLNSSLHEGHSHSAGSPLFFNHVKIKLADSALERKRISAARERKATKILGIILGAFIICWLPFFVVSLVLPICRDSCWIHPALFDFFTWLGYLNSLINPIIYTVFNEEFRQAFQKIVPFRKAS

[8] = target: D(1A) dopamine receptor (Homo sapiens) (UniProt P21728)
[9] = target: Beta-3 adrenergic receptor (Homo sapiens) (UniProt P13945)
Chain of Beta-3 adrenergic receptor (Homo sapiens) (P13945 whole entry, looked up): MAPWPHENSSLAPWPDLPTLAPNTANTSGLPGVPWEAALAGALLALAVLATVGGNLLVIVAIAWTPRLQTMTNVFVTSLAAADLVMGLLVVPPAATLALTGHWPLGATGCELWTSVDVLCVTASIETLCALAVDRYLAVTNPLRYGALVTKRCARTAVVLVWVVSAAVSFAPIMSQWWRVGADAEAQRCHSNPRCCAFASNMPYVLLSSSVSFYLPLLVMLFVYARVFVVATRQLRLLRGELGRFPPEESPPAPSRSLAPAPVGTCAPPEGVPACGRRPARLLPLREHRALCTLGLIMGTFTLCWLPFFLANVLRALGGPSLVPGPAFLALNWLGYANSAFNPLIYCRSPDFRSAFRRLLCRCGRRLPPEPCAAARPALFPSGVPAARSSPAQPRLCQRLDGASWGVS

[10] = target: Kappa-type opioid receptor (Homo sapiens) (UniProt P41145)
[11] = target: Histamine H4 receptor (Homo sapiens) (UniProt Q9H3N8)
Chain of Histamine H4 receptor (Homo sapiens) (Q9H3N8 whole entry): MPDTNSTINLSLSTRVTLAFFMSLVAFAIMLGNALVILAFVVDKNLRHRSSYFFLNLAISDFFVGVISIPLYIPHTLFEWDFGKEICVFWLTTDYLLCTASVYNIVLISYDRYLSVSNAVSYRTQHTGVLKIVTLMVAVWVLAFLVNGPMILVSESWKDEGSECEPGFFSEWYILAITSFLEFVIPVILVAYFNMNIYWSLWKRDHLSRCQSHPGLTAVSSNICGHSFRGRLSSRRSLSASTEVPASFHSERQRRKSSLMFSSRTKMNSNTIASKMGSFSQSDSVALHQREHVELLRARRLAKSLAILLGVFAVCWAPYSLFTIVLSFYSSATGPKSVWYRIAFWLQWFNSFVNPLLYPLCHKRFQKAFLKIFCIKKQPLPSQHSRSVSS

[12] = target: D(3) dopamine receptor (Homo sapiens) (UniProt P35462)
[13] = target: Sigma intracellular receptor 2 (Homo sapiens) (UniProt Q5BJF2)
Chain of Sigma intracellular receptor 2 (Homo sapiens) (Q5BJF2 whole entry): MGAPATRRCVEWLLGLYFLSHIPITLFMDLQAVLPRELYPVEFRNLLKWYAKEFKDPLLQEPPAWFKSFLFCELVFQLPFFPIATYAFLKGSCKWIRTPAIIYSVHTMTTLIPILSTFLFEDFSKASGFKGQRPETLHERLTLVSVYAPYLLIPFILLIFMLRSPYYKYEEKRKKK

[14] = target: Histamine H3 receptor (Homo sapiens) (UniProt Q9Y5N1)
Chain of Histamine H3 receptor (Homo sapiens) (Q9Y5N1 whole entry): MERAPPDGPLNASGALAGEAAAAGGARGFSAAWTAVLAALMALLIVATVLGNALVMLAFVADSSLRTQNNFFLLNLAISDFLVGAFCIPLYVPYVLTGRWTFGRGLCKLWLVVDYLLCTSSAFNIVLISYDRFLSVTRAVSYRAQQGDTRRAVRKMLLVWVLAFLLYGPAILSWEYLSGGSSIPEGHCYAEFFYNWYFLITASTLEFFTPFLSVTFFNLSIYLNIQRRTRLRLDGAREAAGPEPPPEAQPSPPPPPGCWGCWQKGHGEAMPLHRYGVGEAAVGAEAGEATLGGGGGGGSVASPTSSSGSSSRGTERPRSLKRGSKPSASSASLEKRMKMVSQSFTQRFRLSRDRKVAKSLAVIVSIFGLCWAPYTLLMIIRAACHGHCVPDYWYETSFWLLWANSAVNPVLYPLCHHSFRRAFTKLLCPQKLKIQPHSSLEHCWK

[15] = target: Sodium-dependent dopamine transporter (Homo sapiens) (UniProt Q01959)
Chain of Sodium-dependent dopamine transporter (Homo sapiens) (Q01959 whole entry): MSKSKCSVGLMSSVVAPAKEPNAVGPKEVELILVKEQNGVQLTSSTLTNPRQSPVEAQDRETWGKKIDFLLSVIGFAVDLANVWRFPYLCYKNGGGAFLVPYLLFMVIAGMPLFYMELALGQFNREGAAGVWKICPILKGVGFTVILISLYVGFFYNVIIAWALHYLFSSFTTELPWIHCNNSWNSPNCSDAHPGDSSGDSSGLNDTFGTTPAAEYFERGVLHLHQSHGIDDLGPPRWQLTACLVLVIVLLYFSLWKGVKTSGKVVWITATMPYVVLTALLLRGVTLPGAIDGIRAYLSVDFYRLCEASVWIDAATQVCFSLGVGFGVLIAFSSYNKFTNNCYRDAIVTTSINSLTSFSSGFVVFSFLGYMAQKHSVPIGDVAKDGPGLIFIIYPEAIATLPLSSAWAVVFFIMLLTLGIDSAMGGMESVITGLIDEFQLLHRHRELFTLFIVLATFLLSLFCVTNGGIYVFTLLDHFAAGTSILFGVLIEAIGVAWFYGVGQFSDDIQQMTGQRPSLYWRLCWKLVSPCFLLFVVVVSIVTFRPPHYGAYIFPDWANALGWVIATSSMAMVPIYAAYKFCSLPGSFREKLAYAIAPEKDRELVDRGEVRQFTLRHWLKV

[16] = target: T1, D(4) dopamine receptor (Homo sapiens) (UniProt P21917)
T1 sequence (whole entry): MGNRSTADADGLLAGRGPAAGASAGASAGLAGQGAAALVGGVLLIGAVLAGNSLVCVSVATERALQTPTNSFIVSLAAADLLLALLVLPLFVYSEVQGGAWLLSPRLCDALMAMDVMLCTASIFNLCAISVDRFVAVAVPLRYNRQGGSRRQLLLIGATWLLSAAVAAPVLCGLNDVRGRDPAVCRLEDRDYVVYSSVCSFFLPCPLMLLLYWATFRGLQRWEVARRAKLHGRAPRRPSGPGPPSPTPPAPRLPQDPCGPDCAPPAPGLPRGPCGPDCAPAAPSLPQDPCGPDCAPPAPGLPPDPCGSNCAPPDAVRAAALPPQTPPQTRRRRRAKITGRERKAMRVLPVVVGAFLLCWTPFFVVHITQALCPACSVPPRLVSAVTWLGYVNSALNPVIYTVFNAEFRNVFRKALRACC

[17] = target: T2, 5-hydroxytryptamine receptor 3A (Homo sapiens) (UniProt P46098)
T2 sequence (whole entry): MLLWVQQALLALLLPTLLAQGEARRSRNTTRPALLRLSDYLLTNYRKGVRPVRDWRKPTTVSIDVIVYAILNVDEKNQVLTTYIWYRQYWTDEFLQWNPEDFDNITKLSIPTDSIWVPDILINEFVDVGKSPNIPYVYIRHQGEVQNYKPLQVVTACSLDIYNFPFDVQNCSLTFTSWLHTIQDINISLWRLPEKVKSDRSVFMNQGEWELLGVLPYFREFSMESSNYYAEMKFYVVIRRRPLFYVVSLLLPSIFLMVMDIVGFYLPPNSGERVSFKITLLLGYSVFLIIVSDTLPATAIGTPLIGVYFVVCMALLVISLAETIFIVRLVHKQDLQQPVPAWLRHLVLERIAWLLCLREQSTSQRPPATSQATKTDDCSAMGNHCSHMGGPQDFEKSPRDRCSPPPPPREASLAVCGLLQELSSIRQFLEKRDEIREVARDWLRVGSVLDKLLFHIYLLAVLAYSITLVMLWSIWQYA

[18] = target: D(1B) dopamine receptor (Homo sapiens) (UniProt P21918)
[19] = target: 5-hydroxytryptamine receptor 6 (Homo sapiens) (UniProt P50406)
Chain of 5-hydroxytryptamine receptor 6 (Homo sapiens) (P50406 whole entry): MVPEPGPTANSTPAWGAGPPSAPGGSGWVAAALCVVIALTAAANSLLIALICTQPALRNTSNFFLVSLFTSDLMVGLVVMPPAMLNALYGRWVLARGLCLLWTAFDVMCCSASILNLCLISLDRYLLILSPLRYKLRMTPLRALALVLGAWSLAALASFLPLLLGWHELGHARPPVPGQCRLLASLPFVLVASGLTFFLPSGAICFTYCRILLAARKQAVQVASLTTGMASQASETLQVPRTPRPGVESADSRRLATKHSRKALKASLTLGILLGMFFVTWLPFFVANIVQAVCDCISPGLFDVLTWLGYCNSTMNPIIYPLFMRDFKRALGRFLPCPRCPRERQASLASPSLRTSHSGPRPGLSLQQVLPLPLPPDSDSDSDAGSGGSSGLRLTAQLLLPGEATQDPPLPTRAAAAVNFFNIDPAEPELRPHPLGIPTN

[20] = target: Muscarinic acetylcholine receptor M3 (Homo sapiens) (UniProt P20309)
Chain of Muscarinic acetylcholine receptor M3 (Homo sapiens) (P20309 whole entry, looked up): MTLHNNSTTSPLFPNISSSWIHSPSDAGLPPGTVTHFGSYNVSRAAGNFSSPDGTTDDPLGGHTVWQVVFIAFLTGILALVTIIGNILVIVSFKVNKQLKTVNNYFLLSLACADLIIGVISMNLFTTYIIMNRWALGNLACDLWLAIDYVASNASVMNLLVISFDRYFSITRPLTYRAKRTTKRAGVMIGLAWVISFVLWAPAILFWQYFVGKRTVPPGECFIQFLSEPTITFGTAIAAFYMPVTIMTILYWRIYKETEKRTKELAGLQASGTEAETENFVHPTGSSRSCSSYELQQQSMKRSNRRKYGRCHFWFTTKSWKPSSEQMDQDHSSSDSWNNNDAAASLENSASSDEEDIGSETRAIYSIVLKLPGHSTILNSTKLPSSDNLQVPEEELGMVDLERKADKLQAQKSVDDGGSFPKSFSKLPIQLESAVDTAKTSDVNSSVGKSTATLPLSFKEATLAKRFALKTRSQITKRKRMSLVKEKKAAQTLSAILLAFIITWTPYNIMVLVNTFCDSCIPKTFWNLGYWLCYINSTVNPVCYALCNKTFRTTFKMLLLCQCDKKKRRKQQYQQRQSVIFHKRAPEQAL

[21] = target: T3, Muscarinic acetylcholine receptor M2 (Homo sapiens) (UniProt P08172)
T3 sequence (whole entry): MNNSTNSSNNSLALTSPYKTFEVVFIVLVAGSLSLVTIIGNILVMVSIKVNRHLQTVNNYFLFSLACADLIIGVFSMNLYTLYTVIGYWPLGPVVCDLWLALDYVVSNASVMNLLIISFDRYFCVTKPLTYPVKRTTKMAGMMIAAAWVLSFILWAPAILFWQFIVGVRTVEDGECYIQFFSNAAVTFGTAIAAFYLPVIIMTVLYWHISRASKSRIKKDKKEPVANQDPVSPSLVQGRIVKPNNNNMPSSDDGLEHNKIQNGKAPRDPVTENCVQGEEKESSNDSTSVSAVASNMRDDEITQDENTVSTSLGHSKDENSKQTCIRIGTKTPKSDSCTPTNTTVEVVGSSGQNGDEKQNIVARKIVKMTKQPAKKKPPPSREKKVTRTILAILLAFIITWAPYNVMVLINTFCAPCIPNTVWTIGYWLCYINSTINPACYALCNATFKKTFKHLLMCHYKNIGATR

Measured: inhibition

Chain of Sodium-dependent serotonin transporter (Homo sapiens) (P31645 whole entry, looked up): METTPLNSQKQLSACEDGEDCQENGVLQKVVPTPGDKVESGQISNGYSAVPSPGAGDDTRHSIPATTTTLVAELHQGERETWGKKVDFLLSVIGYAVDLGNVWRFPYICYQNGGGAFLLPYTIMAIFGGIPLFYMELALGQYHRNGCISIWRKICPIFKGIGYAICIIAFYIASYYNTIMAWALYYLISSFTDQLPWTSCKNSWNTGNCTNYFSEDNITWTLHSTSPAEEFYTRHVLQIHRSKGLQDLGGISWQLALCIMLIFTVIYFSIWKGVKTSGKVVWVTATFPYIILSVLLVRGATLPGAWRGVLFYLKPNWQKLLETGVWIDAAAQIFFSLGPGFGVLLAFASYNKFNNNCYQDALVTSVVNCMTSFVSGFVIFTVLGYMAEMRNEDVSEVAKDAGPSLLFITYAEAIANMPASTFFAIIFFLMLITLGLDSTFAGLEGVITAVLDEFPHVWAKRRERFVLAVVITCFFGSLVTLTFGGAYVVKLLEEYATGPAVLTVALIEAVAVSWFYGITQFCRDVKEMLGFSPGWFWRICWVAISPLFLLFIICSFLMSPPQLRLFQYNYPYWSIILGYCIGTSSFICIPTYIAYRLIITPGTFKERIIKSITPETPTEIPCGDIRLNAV
Chain of 5-hydroxytryptamine receptor 2A (Homo sapiens) (P28223 whole entry): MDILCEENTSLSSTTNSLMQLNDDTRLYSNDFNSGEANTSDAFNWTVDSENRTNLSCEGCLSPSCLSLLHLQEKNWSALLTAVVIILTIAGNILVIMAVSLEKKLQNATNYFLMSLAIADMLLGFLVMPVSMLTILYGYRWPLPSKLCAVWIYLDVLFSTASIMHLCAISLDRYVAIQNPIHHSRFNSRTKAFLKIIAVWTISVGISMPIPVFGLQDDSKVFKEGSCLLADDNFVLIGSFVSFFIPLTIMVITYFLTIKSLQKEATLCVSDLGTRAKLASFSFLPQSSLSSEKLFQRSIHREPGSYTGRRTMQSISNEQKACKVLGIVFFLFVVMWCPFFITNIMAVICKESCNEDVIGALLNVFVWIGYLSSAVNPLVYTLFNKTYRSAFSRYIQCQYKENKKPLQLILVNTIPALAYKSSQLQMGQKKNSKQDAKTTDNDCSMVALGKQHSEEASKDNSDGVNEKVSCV
Chain of Delta-type opioid receptor (Homo sapiens) (P41143 whole entry): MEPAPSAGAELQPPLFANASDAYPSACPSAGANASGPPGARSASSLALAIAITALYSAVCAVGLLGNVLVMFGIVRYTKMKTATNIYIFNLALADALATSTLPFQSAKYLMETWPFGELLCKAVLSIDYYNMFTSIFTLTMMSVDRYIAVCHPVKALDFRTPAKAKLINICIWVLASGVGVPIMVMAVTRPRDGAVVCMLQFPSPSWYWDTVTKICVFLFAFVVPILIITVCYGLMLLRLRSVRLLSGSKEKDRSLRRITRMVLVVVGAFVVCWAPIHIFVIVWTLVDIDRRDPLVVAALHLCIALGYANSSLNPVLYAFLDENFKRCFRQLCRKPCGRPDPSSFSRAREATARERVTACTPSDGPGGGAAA

CCCCN(CCCC)C(=O)CN1C[C@@H](c2ccc3c(c2)OCO3)[C@H](C(=O)O)[C@H]1c1ccc(OC)cc1
active: [16] 60.5%
inactive: [1] -9.18% | [2] -0.59% | [3] -6.31% | [4] 31% | [5] 13.8% | [6] -9.25% | [7] -9.55% | [8] -3.74% | [9] -9.03% | [10] 27.6% | [11] 4.49% | [12] 28.4% | [13] -0.23% | [14] -6.84% | [15] 25.8% | [17] 2.68%

C[C@@H](NCCCc1cccc(C(F)(F)F)c1)c1cccc2ccccc12
active: [1] 62.7% | [19] 69.1% | [4] 62.1% | [5] 80.6% | [6] 96.3% | [7] 61.5% | [10] 79.3% | [12] 94.4% | [13] 95.5% | [15] 70.4%
inactive: [18] -9.65% | [20] 25.8% | [8] 8.33% | [21] 42% | [9] 48% | [11] 14% | [14] 18.1% | [16] 48% | [17] 15.4%

CCCCCCCCCCCCCCCCOC[C@H](COP(=O)([O-])OCC[N+](C)(C)C)OC(C)=O
inactive: [1] 0.76% | [18] 13.6% | [2] 43.7% | [19] 4.6% | [4] 4.45% | [5] 2.23% | [20] 19.2% | [21] -4.25% | [9] 28.1% | [10] 11.9% | [14] -0.67% | [16] 16.4%
active: [7] 68.2% | [12] 72.5% | [13] 57.9%

COc1ccc(S(=O)(=O)c2cc(OC)ccc2S(=O)(=O)c2ccc([C@H](C)NS(C)(=O)=O)cc2)cc1
active: [19] 96.5% | [12] 73.4% | [16] 58.7%
inactive: [1] -7.38% | [18] 14.2% | [4] 15.6% | [5] 31.9% | [6] 23.7% | [8] 0.39% | [9] 1.41% | [10] 2.71% | [13] 32.1% | [15] 18.8% | [17] -2.2%

O=c1ccn([C@@H]2O[C@H](COP(=O)(O)OP(=O)(O)O)[C@@H](O)[C@H]2O)c(=O)[nH]1
inactive: [1] 21.1% | [18] -4.32% | [2] 14.1% | [19] 6.18% | [4] -7.58% | [5] 10.7% | [6] 0.47% | [7] -5.04% | [20] 2.51% | [21] 15.9% | [9] 15.3% | [10] 6.04% | [11] 7.98% | [12] 7.98% | [13] 2.62% | [14] 7.28% | [15] 6.84%

COc1cc(-n2cnc3cc(-c4ccc(Cl)cc4)sc3c2=O)ccc1OCCN1CCCC1
inactive: [18] 27.2% | [2] 28.9% | [19] -7.71% | [4] 18.7% | [5] 32.9% | [8] 11.7% | [9] 43.7% | [10] 33.2% | [16] 32.4% | [17] 22.5%
active: [1] 85.8% | [6] 82.7% | [7] 56.6% | [20] 56.6% | [21] 71.5% | [11] 58.1% | [12] 68.5% | [13] 94.7% | [14] 88.9% | [15] 66.4%

C[C@H](NC[C@H](O)CP(=O)(O)CC1CCCCC1)c1ccc(Cl)c(Cl)c1
inactive: [1] -2.56% | [2] -5.34% | [19] 2.61% | [4] 26% | [5] -0.59% | [6] 0.95% | [20] -3.76% | [21] 40.4% | [9] 38.3% | [11] 1.86% | [12] 19.5% | [13] 26.7% | [14] 17.5% | [16] 13.4% | [17] 6.3%
active: [10] 52.3% | [15] 62.1%

CCOC(=O)c1c(C)[nH]c2ccc3c(c12)CN1CCc2cc(OC)ccc2C1O3 (stereo not drawn)
active: [4] 57.5% | [6] 67.6% | [20] 69.2% | [10] 57.4% | [15] 82.9% | [17] 75.4%
inactive: [1] 6.67% | [2] -2.17% | [19] 10.8% | [5] 28.7% | [7] 14.9% | [8] 1.81% | [21] 22.6% | [9] 6.3% | [11] 29.1% | [12] 44.2% | [13] 36.3% | [14] -2.82% | [16] -5.53%

CSc1ccc(C(=O)N[C@@H]2CCCC[C@@H]2NC(=O)CNC(=O)c2cc(C(F)(F)F)ccc2NC(=O)NC(C)C)cc1
inactive: [1] 13.7% | [2] 4.07% | [3] -9.46% | [4] 28.4% | [5] 9.73% | [6] 27.9% | [8] -8.17% | [9] 1.5% | [10] 15.3% | [13] 18.9% | [14] 4.61% | [15] 28.2% | [16] 3.27% | [17] -5.92%
active: [12] 86.6%

N#Cc1cccc(C(=O)Nc2cc(-c3ccccc3)nn2-c2ccccc2)c1
inactive: [1] 6.36% | [18] 0.95% | [19] 6.69% | [4] 33% | [5] 6.53% | [6] 2.3% | [21] 20.9% | [9] -5.54% | [10] 16.2% | [12] 30.4% | [13] -8.91% | [14] 7.12% | [15] 2.12% | [16] 4.16%

CCCCN(CC)c1nc(C)nc2c1c(C)cn2-c1c(C)cc(C)cc1C
active: [13] 78.3%
inactive: [1] 2.76% | [18] -2.04% | [2] 7.66% | [3] 37.8% | [4] 20.9% | [5] 9.7% | [6] 16.9% | [7] -0.49% | [8] 19.2% | [9] 41.7% | [10] 43.2% | [11] 2.86% | [12] 18.6% | [14] -0.29% | [15] 36% | [17] -1.19%

Cc1cc(C(=O)N2Cc3cnn(C)c3Nc3ccccc32)ccc1CNC(=O)N1CCC[C@H]1C(=S)N1CCCN(C)CC1
inactive: [1] -2.9% | [18] 11% | [4] 46.9% | [5] 9.68% | [6] 18.3% | [8] -3.37% | [9] -2.29% | [13] -1.48% | [15] 19.8% | [17] 25.9%
active: [20] 65.2% | [21] 68.4% | [10] 61.7% | [12] 87.3%
